Assay results: patent US20060194837A1, “Tetrahydroisoquinoline compounds” (priority 2004, published 2006)

Key:
Rat SERT = molecular target: T1, Rat SERT (Rattus norvegicus, UniProt P31652); test: Rat brain SERT binding ([3H]-citalopram displacement); settings: rat brain membranes without cerebellum, 0.6 nM [3H]-citalopram, 60 min at 25° C.; read-out: Rat SERT Ki
T1 construct: A rat brain without cerebellum (Zivic Laboratories, Inc.—Pittsburgh, Pa.) was homogenized; tissue Zivic Laboratories, Inc; host or cells: rat brain without cerebellum, membranes
T1 sequence (P31652 whole entry): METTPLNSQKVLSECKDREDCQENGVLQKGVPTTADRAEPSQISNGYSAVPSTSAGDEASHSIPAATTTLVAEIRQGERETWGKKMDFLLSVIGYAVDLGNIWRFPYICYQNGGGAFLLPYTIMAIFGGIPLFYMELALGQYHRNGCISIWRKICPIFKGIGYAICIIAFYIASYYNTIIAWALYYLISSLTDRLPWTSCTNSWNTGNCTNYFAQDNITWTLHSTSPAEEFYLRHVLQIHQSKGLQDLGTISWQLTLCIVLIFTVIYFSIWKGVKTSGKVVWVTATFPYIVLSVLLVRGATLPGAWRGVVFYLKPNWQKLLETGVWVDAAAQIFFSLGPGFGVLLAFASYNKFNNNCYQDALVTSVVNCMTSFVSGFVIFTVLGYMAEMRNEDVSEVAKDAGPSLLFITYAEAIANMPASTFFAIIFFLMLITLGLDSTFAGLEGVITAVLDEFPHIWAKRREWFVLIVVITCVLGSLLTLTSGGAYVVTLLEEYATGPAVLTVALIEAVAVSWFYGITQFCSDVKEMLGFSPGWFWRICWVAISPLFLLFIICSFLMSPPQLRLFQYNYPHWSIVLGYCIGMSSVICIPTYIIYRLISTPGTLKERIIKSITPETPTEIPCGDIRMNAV
Protocol: The supernatant was removed and re-centrifuged at 15,000 rpm for 30 min. […] Membranes were incubated with 0.6 nM [^3H]-Citalopram plus/minus test compounds for 60 min at 25° C. and harvested by rapid filtration over GF/C glass fiber filters (pretreated with 0.3% polyethylenimine) followed by four washes with ice-cold buffer.

human H3 receptor = molecular target: T2, human H3 receptor (Homo sapiens, UniProt Q9Y5N1); test: H3 receptor binding (N-[3H]-α-methylhistamine displacement); settings: membranes of SK-N-MC cells expressing cloned human H3 receptor, 0.8 nM N-[3H]-α-methylhistamine, 60 min at 25° C.
T2 construct: expressed in transfected cells
T2 sequence (Q9Y5N1 whole entry): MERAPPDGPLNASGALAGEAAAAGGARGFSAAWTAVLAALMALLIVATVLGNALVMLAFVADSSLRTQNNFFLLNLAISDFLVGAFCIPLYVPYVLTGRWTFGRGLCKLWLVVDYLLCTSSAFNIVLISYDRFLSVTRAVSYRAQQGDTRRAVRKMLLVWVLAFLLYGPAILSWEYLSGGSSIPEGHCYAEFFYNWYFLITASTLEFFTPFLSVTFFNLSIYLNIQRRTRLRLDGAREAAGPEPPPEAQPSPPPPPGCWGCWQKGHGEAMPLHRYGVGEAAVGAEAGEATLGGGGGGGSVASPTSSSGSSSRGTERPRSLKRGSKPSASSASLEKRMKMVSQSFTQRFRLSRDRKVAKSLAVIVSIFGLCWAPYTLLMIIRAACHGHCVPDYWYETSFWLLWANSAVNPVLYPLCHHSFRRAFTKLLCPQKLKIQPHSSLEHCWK

Row | SMILES | Ki (Rat SERT) [nM] | Ki (human H3 receptor) [nM]
1 | C=CCNCCCOc1ccc2c(c1)CN(C)CC2c1ccc(OC)cc1 (stereo not drawn) [Example 227, Allyl-{3-[4-(4-methoxy-phenyl)-2-methyl-1,2,3,4-tetrahydro-isoquinolin-7-yloxy]-propyl}-amine] | 1 | 52
2 | COc1ccc(C2CN(C)Cc3cc(OCCCNCC(C)C)ccc32)cc1 (stereo not drawn) [Example 228, Isobutyl-{3-[4-(4-methoxy-phenyl)-2-methyl-1,2,3,4-tetrahydro-isoquinolin-7-yloxy]-propyl}-amine] | 1 | 38
3 | COc1ccc(C2CN(C)Cc3cc(OCCCNC4CC4)ccc32)cc1 (stereo not drawn) [Example 229, Cyclopropyl-{3-[4-(4-methoxy-phenyl)-2-methyl-1,2,3,4-tetrahydro-isoquinolin-7-yloxy]-propyl}-amine] | 2 | 18
4 | COc1ccc(C2CN(C)Cc3cc(OCCCNC(C)C)ccc32)cc1 (stereo not drawn) [Example 230, Isopropyl-{3-[4-(4-methoxy-phenyl)-2-methyl-1,2,3,4-tetrahydro-isoquinolin-7-yloxy]-propyl}-amine] | 1 | 17
5 | CCCNCCCOc1ccc2c(c1)CN(C)CC2c1ccc(OC)cc1 (stereo not drawn) [Example 231, {3-[4-(4-Methoxy-phenyl)-2-methyl-1,2,3,4-tetrahydro-isoquinolin-7-yloxy]-propyl}-propyl-amine] | 2 | 61
6 | CCNCCCOc1ccc2c(c1)CN(C)CC2c1ccc(OC)cc1 (stereo not drawn) [Example 232, Ethyl-{3-[4-(4-methoxy-phenyl)-2-methyl-1,2,3,4-tetrahydro-isoquinolin-7-yloxy]-propyl}-amine] | 1 | 20
7 | COc1ccc(C2CN(C)Cc3cc(OCCCN(C)C(C)C)ccc32)cc1 (stereo not drawn) [Example 233, Isopropyl-{3-[4-(4-methoxy-phenyl)-2-methyl-1,2,3,4-tetrahydro-isoquinolin-7-yloxy]-propyl}-methyl-amine] | 3 | 4
8 | COc1ccc(C2CN(C)Cc3cc(OCCCN(C)C4CC4)ccc32)cc1 (stereo not drawn) [Example 234, Cyclopropyl-{3-[4-(4-methoxy-phenyl)-2-methyl-1,2,3,4-tetrahydro-isoquinolin-7-yloxy]-propyl}-methyl-amine] | 3 | 3
9 | COc1ccc(C2CN(C)Cc3cc(OCCCN(C4CC4)C4CC4)ccc32)cc1 (stereo not drawn) [Example 235, Dicyclopropyl-{3-[4-(4-methoxy-phenyl)-2-methyl-1,2,3,4-tetrahydro-isoquinolin-7-yloxy]-propyl}-amine] | 7 | 6
10 | CSc1ccc(C2CN(C)Cc3cc(OCC4CN(CCF)C4)ccc32)cc1 (stereo not drawn) [Example 239, 7-[1-(2-Fluoro-ethyl)-azetidin-3-ylmethoxy]-2-methyl-4-(4-methylsulfanyl-phenyl)-1,2,3,4-tetrahydro-isoquinoline] | 2 | 30
11 | COc1ccc(C2CN(C)Cc3cc(OC4CCN(CC#N)CC4)ccc32)cc1 (stereo not drawn) [Example 242] | 6 | 124
12 | CSc1ccc(C2CN(C)Cc3cc(OC4CCN(CCC(F)(F)F)CC4)ccc32)cc1 (stereo not drawn) [Example 244, 2-Methyl-4-(4-methylsulfanyl-phenyl)-7-[1-(3,3,3-trifluoro-propyl)-piperidin-4-yloxy]-1,2,3,4-tetrahydro-isoquinoline] | 7 | 129
13 | CSc1ccc(C2CN(C)Cc3cc(OC4CCN(CC#N)CC4)ccc32)cc1 (stereo not drawn) [Example 245, {4-[2-Methyl-4-(4-methylsulfanyl-phenyl)-1,2,3,4-tetrahydro-isoquinolin-7-yloxy]-piperidin-1-yl}-acetonitrile] | 7 | 336
14 | CSc1ccc(C2CN(C)Cc3cc(OC4CCN(C5CCOCC5)CC4)ccc32)cc1 (stereo not drawn) [Example 246, 2-Methyl-4-(4-methylsulfanyl-phenyl)-7-[1-(tetrahydro-pyran-4-yl)-piperidin-4-yloxy]-1,2,3,4-tetrahydro-isoquinoline] | 10 | 3
15 | COc1ccc(C2CN(C)Cc3cc(OCC4CCN(C5CCC5)CC4)ccc32)cc1 (stereo not drawn) [Example 248, 7-(1-Cyclobutyl-piperidin-4-ylmethoxy)-4-(4-methoxy-phenyl)-2-methyl-1,2,3,4-tetrahydro-isoquinoline] | 7 | 5
16 | COc1ccc(C2CN(C)Cc3cc(OCC4CCN(C5CC5)CC4)ccc32)cc1 (stereo not drawn) [Example 249, 7-(1-Cyclopropyl-piperidin-4-ylmethoxy)-4-(4-methoxy-phenyl)-2-methyl-1,2,3,4-tetrahydro-isoquinoline] | 6 | 4
17 | COc1ccc(C2CN(C)Cc3cc(OCC4CCN(CC(C)(C)O)CC4)ccc32)cc1 (stereo not drawn) [Example 250, 1-{4-[4-(4-Methoxy-phenyl)-2-methyl-1,2,3,4-tetrahydro-isoquinolin-7-yloxymethyl]-piperidin-1-yl}-2-methyl-propan-2-ol] | 4 | 34
18 | COc1ccc(C2CN(C)Cc3cc(OC[C@@H]4CNCCO4)ccc32)cc1 (stereo partly drawn) [Example 252, 4-(4-Methoxy-phenyl)-2-methyl-7-(morpholin-2S-ylmethoxy)-1,2,3,4-tetrahydro-isoquinoline] | 2 | 233
19 | COc1ccc(C2CN(C)Cc3cc(OC[C@H]4CNCCO4)ccc32)cc1 (stereo partly drawn) [Example 253, 4-(4-Methoxy-phenyl)-2-methyl-7-(morpholin-2R-ylmethoxy)-1,2,3,4-tetrahydro-isoquinoline] | 2 | 263
20 | COc1ccc(C2CN(C)Cc3cc(OCCCN4CCOCC4)c(C)cc32)cc1 (stereo not drawn) [Example 266, 4-(4-Methoxy-phenyl)-2,6-dimethyl-7-(3-morpholin-4-yl-propoxy)-1,2,3,4-tetrahydro-isoquinoline] | 31 | 14
21 | COc1ccc(C2CN(C)Cc3cc(OCCCN4CCOCC4)c(C)cc32)cc1F (stereo not drawn) [Example 267, 4-(3-Fluoro-4-methoxy-phenyl)-2,6-dimethyl-7-(3-morpholin-4-yl-propoxy)-1,2,3,4-tetrahydro-isoquinoline] | 25 | 12
22 | COc1ccc(C2CN(C)Cc3c2ccc(OCCCN2CCOCC2)c3C)cc1F (stereo not drawn) [Example 268, 4-(3-Fluoro-4-methoxy-phenyl)-2,8-dimethyl-7-(3-morpholin-4-yl-propoxy)-1,2,3,4-tetrahydro-isoquinoline] | 12 | 18
23 | COc1ccc(C2CN(C)Cc3c2ccc(OCCCN2CCOCC2)c3C)cc1 (stereo not drawn) [Example 269, 4-(4-Methoxy-phenyl)-2,8-dimethyl-7-(3-morpholin-4-yl-propoxy)-1,2,3,4-tetrahydro-isoquinoline] | 23 | 44
24 | CSc1ccc(C2CN(C)Cc3cc(OCCCN4CCCCC4)c(C)cc32)cc1 (stereo not drawn) [Example 270, 2,6-Dimethyl-4-(4-methylsulfanyl-phenyl)-7-(3-piperidin-1-yl-propoxy)-1,2,3,4-tetrahydro-isoquinoline] | 18 | 6
